Data published in the supplement of paper PMC10307832.

Tests used:
Test in all cases: relative viability (nuclei count vs DMSO), 5 days (fraction); higher = more cells survive
AGI-6780 + Dasatinib = compound: O=C(Nc1cccc(C(F)(F)F)c1)Nc1cc(S(=O)(=O)NC2CC2)ccc1-c1ccsc1 [AGI-6780] + Cc1nc(Nc2ncc(C(=O)Nc3c(C)cccc3Cl)s2)cc(N2CCN(CCO)CC2)n1 [Dasatinib] (partner 0.075 µM)
Method in brief: (§1)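 After 5 days of treatment, lung cancer cells in 1536-well plates were fixed and stained in a single step (final 0.05% Triton X-100, 1% formaldehyde, 1 ug/ml Hoechst) and their nuclei counted on 4× images. Treatment had been applied by pin tool the day after seeding as one drug alone or as a fixed anchor-drug dose with five library-drug doses (not always all listed) in √10 steps. Relative viability is the nuclei count of treated wells divided by that of vehicle wells, and values are medians of duplicate plates.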

AGI-6780 + Vorinostat = compound: O=C(Nc1cccc(C(F)(F)F)c1)Nc1cc(S(=O)(=O)NC2CC2)ccc1-c1ccsc1 [AGI-6780] + O=C(CCCCCCC(=O)Nc1ccccc1)NO [Vorinostat] (partner 1 µM)
Method in brief: as §1

AGI-6780 + Navitoclax = compound: O=C(Nc1cccc(C(F)(F)F)c1)Nc1cc(S(=O)(=O)NC2CC2)ccc1-c1ccsc1 [AGI-6780] + CC1(C)CCC(c2ccc(Cl)cc2)=C(CN2CCN(c3ccc(C(=O)NS(=O)(=O)c4ccc(N[C@H](CCN5CCOCC5)CSc5ccccc5)c(S(=O)(=O)C(F)(F)F)c4)cc3)CC2)C1 [Navitoclax] (partner 0.5 µM)
Method in brief: as §1

AGI-6780 + Crizotinib = compound: O=C(Nc1cccc(C(F)(F)F)c1)Nc1cc(S(=O)(=O)NC2CC2)ccc1-c1ccsc1 [AGI-6780] + C[C@@H](Oc1cc(-c2cnn(C3CCNCC3)c2)cnc1N)c1c(Cl)ccc(F)c1Cl [Crizotinib] (partner 1 µM)
Method in brief: as §1

Cell Line | relative viability (AGI-6780 + Dasatinib; first compound 0.08 µM) | relative viability (AGI-6780 + Dasatinib; first compound 0.253 µM) | relative viability (AGI-6780 + Dasatinib; first compound 0.8 µM) | relative viability (AGI-6780 + Dasatinib; first compound 2.53 µM) | relative viability (AGI-6780 + Dasatinib; first compound 8 µM) | relative viability (AGI-6780 + Vorinostat; first compound 0.08 µM) | relative viability (AGI-6780 + Vorinostat; first compound 0.253 µM) | relative viability (AGI-6780 + Vorinostat; first compound 0.8 µM) | relative viability (AGI-6780 + Vorinostat; first compound 2.53 µM) | relative viability (AGI-6780 + Vorinostat; first compound 8 µM) | relative viability (AGI-6780 + Navitoclax; first compound 0.08 µM) | relative viability (AGI-6780 + Navitoclax; first compound 0.253 µM) | relative viability (AGI-6780 + Navitoclax; first compound 0.8 µM) | relative viability (AGI-6780 + Navitoclax; first compound 2.53 µM) | relative viability (AGI-6780 + Navitoclax; first compound 8 µM) | relative viability (AGI-6780 + Crizotinib; first compound 0.08 µM) | relative viability (AGI-6780 + Crizotinib; first compound 0.253 µM) | relative viability (AGI-6780 + Crizotinib; first compound 0.8 µM) | relative viability (AGI-6780 + Crizotinib; first compound 2.53 µM) | relative viability (AGI-6780 + Crizotinib; first compound 8 µM)
NCI-H23 | 0.922 | 0.701 | 0.752 | 0.378 | 0.735 | 0.61 | 0.74 | 0.735 | 0.614 | 0.508 | 0.844 | 0.951 | 0.835 | 0.555 | 0.802 | 0.56 | 0.633 | 0.629 | 0.539 | 0.544
PC-14 | 0.233 | 0.256 | 0.308 | 0.276 | 0.24 | 0.919 | 0.708 | 0.845 | 0.779 | 0.799 | 1.06 | 0.967 | 0.849 | 1.01 | 0.952 | 0.902 | 0.867 | 0.971 | 0.851 | 0.928
NCI-H727 | 0.35 | 0.297 | 0.386 | 0.314 | 0.398 | 1.16 | 1.01 | 1.15 | 1.13 | 1.16 | 0.493 | 0.448 | 0.474 | 0.369 | 0.494 | 0.887 | 0.702 | 0.842 | 0.844 | 0.843
NCI-H647 | 0.186 | 0.202 | 0.23 | 0.175 | 0.448 | 0.734 | 0.628 | 0.942 | 0.572 | 0.752 | 1.2 | 1.22 | 1.33 | 1.09 | 1.19 | 1.1 | 1.13 | 1.38 | 0.96 | 1.15
EKVX | 0.583 | 0.467 | 0.598 | 0.6 | 0.619 | 0.827 | 0.686 | 0.752 | 0.721 | 0.614 | 1.02 | 0.879 | 0.935 | 0.717 | 0.978 | 0.904 | 0.813 | 1.15 | 0.888 | 1.07
NCI-H838 | 0.312 | 0.357 | 0.307 | 0.261 | 0.321 | 0.801 | 0.687 | 0.738 | 0.647 | 0.672 | 1.19 | 1.09 | 1.17 | 1.06 | 1.11 | 0.979 | 0.795 | 0.973 | 0.812 | 0.844
NCI-H1355 | 0.771 | 0.712 | 0.771 | 0.518 | 0.776 | 0.696 | 0.724 | 0.671 | 0.569 | 0.687 | 1.01 | 1.05 | 0.984 | 0.932 | 0.946 | 1.04 | 1.02 | 1.08 | 0.943 | 1.01
NCI-H1563 | 0.51 | 0.51 | 0.459 | 0.459 | 0.459 | – | – | – | – | – | – | – | – | – | – | 0.943 | 0.827 | 0.828 | 0.858 | 0.903
NCI-H1648 | – | – | – | – | – | 0.377 | 0.689 | 0.566 | 0.423 | 0.419 | – | – | – | – | – | – | – | – | – | –
LCLC-103H | 0.462 | 0.565 | 0.51 | 0.318 | 0.503 | 0.746 | 0.861 | 0.759 | 0.576 | 0.781 | – | – | – | – | – | 1.08 | 1.12 | 1 | 1.03 | 1.01
Calu-6 | – | – | – | – | – | – | – | – | – | – | 0.948 | 0.815 | 0.846 | 0.833 | 0.891 | 0.822 | 0.829 | 0.948 | 0.824 | 0.752
SW 900 | 0.542 | 0.675 | 0.555 | 0.587 | 0.571 | 0.485 | 0.484 | 0.707 | 0.548 | 0.586 | – | – | – | – | – | – | – | – | – | –
NCI-H650 | 0.459 | 0.528 | 0.443 | 0.399 | 0.426 | 0.465 | 0.466 | 0.393 | 0.389 | 0.465 | – | – | – | – | – | 0.833 | 0.673 | 0.737 | 0.601 | 0.641
NCI-H1299 | – | – | – | – | – | – | – | – | – | – | 1.02 | 1.06 | 0.97 | 1.06 | 1.02 | 0.995 | 0.956 | 1.01 | 0.945 | 0.941
IA-LM | – | – | – | – | – | – | 0.857 | 1.06 | 1.04 | 0.778 | 0.761 | 0.768 | 0.908 | 0.787 | 0.959 | 1.12 | 0.76 | 1.09 | 0.827 | 0.876
NCI-H358 | 0.184 | 0.175 | 0.17 | 0.151 | 0.197 | 1.07 | 0.616 | 0.709 | 0.602 | 0.675 | – | – | – | – | – | 0.76 | 0.566 | 0.573 | 0.528 | 0.471
NCI-H1703 | – | – | – | – | – | – | – | – | – | – | 1.49 | 1.21 | 1.25 | 1.1 | 1.25 | 0.906 | 0.612 | 1.11 | 0.665 | 0.824
HCC-44 | – | – | – | – | – | 1.16 | 1.03 | 1.13 | 1.08 | 1.11 | 0.969 | 1.02 | 0.94 | 0.856 | 1.11 | 0.769 | 0.811 | 0.82 | 0.855 | 0.821
ABC-1 | 0.589 | 0.57 | 0.632 | 0.553 | 0.712 | – | 1.52 | 1.38 | 0.842 | 1.03 | – | – | – | – | – | 1.1 | 1.17 | 1.69 | 1.2 | 0.978
NCI-H522 | 0.941 | 0.85 | 1.01 | 0.812 | 0.836 | 0.922 | 0.946 | 1.05 | – | 0.825 | – | – | – | – | – | – | – | – | – | –
NCI-H661 | 0.819 | 0.998 | 0.986 | 0.858 | 1.02 | 0.815 | 0.863 | 0.809 | 0.793 | 0.734 | – | – | – | – | – | 1.02 | 0.921 | 1.22 | 0.996 | 1.08
